US10857258B2, “Adhesive peptide and use therefor” (SEWON BIOTECHNOLOGY INC., priority 2015, dated 2020)
“Also recorded” adds a separate entry of the source. Residues, ends and D or L forms follow the SMILES beside them.

What was measured:
[1] = tested on: osteoblast MC3TC-E1; assay: Safety in osteoblasts; type: cell-based, Mouse; conditions: 0.1 μM, 1 μM, 10 μM and 100 μM
Experimental: The safety of the present peptides was determined using osteoblast MC3TC-E1. Osteoblasts were treated with A7-1 peptide as prepared in Example 1 at the concentration of 0.1 μM, 1 μM, 10 μM and 100 μM. Then the effect of the present peptide on the proliferation (FIG. 8A), viability (FIG. 8B) and differentiation (FIG. 8C) on the cells was examined. For testing the effect on the […], MC3T3-E1 and C2C12 cell lines were treated with BMP (rhBMP2, 10 ng/ml for 3 days) and differentiation medium for bone formation for 6 days to induce differentiation. The results were examined by cell staining. It is observed that the present peptide has no effect on the proliferation rate, viability rate or whether or not the cells are differentiated.

[2] = tested on: anchorage dependent cells MC3T3-E1; assay: Comparative experiment with soluble RGDS, CCK-8; type: cell-based, Mouse; conditions: RGDS 0, 10, 100 and 1000 μM
Experimental: The present peptide A7-1(10 μM) or A7-1 together with soluble RGDS peptide (0, 10, 100 and 1000 μM) for competition assay were added to anchorage dependent cells MC3T3-E1 in a test tube and incubated for 10 min. Then the cells were transferred to a culture plate and incubated for 10 min in a thermostatic incubator to allow the cells to attach. After 10 min, the medium was removed and the cells were washed 2 times with PBS to remove any unattached cells and a fresh medium without the peptide and CCK-8 (Dojindo) were added to the cells and incubated for 1 hr in a thermostatic incubator. Then the absorbance was measured at 450 nm. The medium mixed with CCK-8 only was used as a blank.

Compound | effect on differentiation [1] | effect on proliferation rate [1] | effect on viability rate [1] | cell adhesiveness with RGDS in the absence of A7-1 [2]
CC(C)C[C@H](NC(=O)[C@H](CCC(N)=O)NC(=O)[C@@H](N)CCCNC(=N)N)C(=O)N[C@H](C(=O)N[C@H](C(=O)N[C@@H](CCCCN)C(=O)N[C@@H](Cc1ccccc1)C(=O)N[C@@H](CCCNC(=N)N)C(=O)N[C@@H](C)C(=O)N[C@@H](CC(C)C)C(=O)N1CCC[C@H]1C(=O)N[C@@H](CS)C(=O)O)C(C)C)C(C)C [A7-1, RQLVVKFRALPC] (H-RQLVVKFRALPC-OH) | no effect | no effect | no effect | 
RGDS |  |  |  | decreased in a concentration dependent manner; also recorded: significantly reduces the adhesiveness
